From paper PMC9416303, “Two New Picoline-Derived Meroterpenoids with Anti-Acetylcholinesterase Activity from Ascidian-Derived Fungus Amphichorda felina” (Molecules, 2022)

Target: acetylcholinesterase (AChE) (Electrophorus electricus, UniProt O42275)
Test: modified Ellman's colorimetric assay, commercial AChE (Sigma C3389)
Assay type: biochemical

acetylcholinesterase (AChE), sequence (O42275 24-633): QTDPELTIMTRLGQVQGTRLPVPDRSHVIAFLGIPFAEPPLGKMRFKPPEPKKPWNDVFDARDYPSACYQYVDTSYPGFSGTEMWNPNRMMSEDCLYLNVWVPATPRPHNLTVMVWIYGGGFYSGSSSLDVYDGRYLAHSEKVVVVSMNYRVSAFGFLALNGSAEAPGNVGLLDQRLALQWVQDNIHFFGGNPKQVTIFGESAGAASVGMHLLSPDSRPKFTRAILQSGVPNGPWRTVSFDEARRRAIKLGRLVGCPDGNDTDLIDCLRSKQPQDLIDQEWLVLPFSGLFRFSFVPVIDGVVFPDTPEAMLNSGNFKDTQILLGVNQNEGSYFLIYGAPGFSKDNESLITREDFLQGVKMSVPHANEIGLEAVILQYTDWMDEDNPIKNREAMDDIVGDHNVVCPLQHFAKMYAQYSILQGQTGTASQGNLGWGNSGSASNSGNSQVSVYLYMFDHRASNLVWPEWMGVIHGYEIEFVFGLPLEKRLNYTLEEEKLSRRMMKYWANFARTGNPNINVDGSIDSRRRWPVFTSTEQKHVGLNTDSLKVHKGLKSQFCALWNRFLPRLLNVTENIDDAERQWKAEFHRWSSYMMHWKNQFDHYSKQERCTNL

| Structure (SMILES) | IC50 [µM] |
| --- | --- |
| C[C@H]1COC(c2cc3c(cn2)OC(C)(C)[C@H](O)C3)=CC1=O [compound 1, Amphichoterpenoid D] | 12.5 |
| C[C@@H]1COC(c2cc3c(cn2)OC(C)(C)[C@H](O)C3)=CC1=O [compound 2, Amphichoterpenoid E] | 11.6 |
